Patent publication US20160158317A1, “Antimicrobial Peptide Variants and Polynucleotides Encoding Same” (Adenium Biotech A/S, priority 2010, published 2016)
Where a SMILES comes first, the peptide text is derived from it. Bridges are numbered along the chain shown (N, C = ends).

Test: Determination of the protein binding (90% serum, 30 kDa filter, HPLC)
Assay type: in vitro ADME
Details: serum
Procedure: Protein binding assays were performed as follows. The purified peptides were mixed with 90% serum and centrifuged through a 30 kDa filter. The ultra-filtrate and the non filtrated serum samples were quantified by HPLC measurements and the protein binding was subsequently calculated.

| Compound | fraction unbound |
| --- | --- |
| CC(C)[C@@H]1NC(=O)CNC(=O)[C@H](CC(N)=O)NC(=O)[C@H](CCCNC(=N)N)NC(=O)[C@H](Cc2ccc(O)cc2)NC(=O)[C@H](C(C)C)NC(=O)[C@@H]2CSSC[C@H](NC(=O)[C@H](C(C)C)NC(=O)[C@H](CCCNC(=N)N)NC1=O)C(=O)N[C@@H](Cc1c[nH]cn1)C(=O)N[C@@H](CCCNC(=N)N)C(=O)N[C@@H](CCCNC(=N)N)C(=O)N[C@H](C(=O)N[C@@H](CCCNC(=N)N)C(=O)O)CSSC[C@H](NC(=O)[C@H](Cc1ccccc1)NC(=O)CN)C(=O)N[C@@H](Cc1c[nH]c3ccccc13)C(=O)N[C@@H](CC(N)=O)C(=O)N[C@@H](C(C)C)C(=O)N2 [compound 289] (H-GFCWNVCVYRNGVRVCHRRCR-OH; disulfide 3-20, 7-16 (inferred); N-terminus and C-terminus assumed) | 0.17 |
| CC(C)[C@@H]1NC(=O)CNC(=O)[C@H](CC(N)=O)NC(=O)[C@H](CCCNC(=N)N)NC(=O)[C@H](Cc2ccc(O)cc2)NC(=O)[C@H](C(C)C)NC(=O)[C@@H]2CSSC[C@H](NC(=O)[C@H](C(C)C)NC(=O)[C@H](CCCNC(=N)N)NC1=O)C(=O)N[C@@H](Cc1c[nH]cn1)C(=O)N[C@@H](CCCNC(=N)N)C(=O)N[C@@H](CCCNC(=N)N)C(=O)N[C@H](C(=O)N[C@@H](Cc1c[nH]c3ccccc13)C(=O)O)CSSC[C@H](NC(=O)[C@H](Cc1ccccc1)NC(=O)CN)C(=O)N[C@@H](Cc1c[nH]c3ccccc13)C(=O)N[C@@H](CC(N)=O)C(=O)N[C@@H](C(C)C)C(=O)N2 [compound 291] (H-GFCWNVCVYRNGVRVCHRRCW-OH; disulfide 3-20, 7-16 (inferred); N-terminus and C-terminus assumed) | 0.01 |
| CC(C)[C@@H]1NC(=O)CNC(=O)[C@H](CC(N)=O)NC(=O)[C@H](CCCNC(=N)N)NC(=O)[C@H](C)NC(=O)[C@H](C(C)C)NC(=O)[C@@H]2CSSC[C@H](NC(=O)[C@H](C(C)C)NC(=O)[C@H](CCCNC(=N)N)NC1=O)C(=O)N[C@@H](Cc1c[nH]cn1)C(=O)N[C@@H](CCCNC(=N)N)C(=O)N[C@@H](CCCNC(=N)N)C(=O)N[C@H](C(=O)N[C@@H](CC(N)=O)C(=O)O)CSSC[C@H](NC(=O)[C@H](Cc1ccccc1)NC(=O)CN)C(=O)N[C@@H](Cc1c[nH]c3ccccc13)C(=O)N[C@@H](CC(N)=O)C(=O)N[C@@H](C(C)C)C(=O)N2 [compound 299] (H-GFCWNVCVARNGVRVCHRRCN-OH; disulfide 3-20, 7-16 (inferred); N-terminus and C-terminus assumed) | 0.26 |
| CC(C)[C@@H]1NC(=O)CNC(=O)[C@H](CC(N)=O)NC(=O)[C@H](CCCNC(=N)N)NC(=O)[C@H](Cc2c[nH]cn2)NC(=O)[C@H](C(C)C)NC(=O)[C@@H]2CSSC[C@H](NC(=O)[C@H](C(C)C)NC(=O)[C@H](CCCNC(=N)N)NC1=O)C(=O)N[C@@H](Cc1c[nH]cn1)C(=O)N[C@@H](CCCNC(=N)N)C(=O)N[C@@H](CCCNC(=N)N)C(=O)N[C@H](C(=O)N[C@@H](CC(N)=O)C(=O)O)CSSC[C@H](NC(=O)[C@H](Cc1ccccc1)NC(=O)CN)C(=O)N[C@@H](Cc1c[nH]c3ccccc13)C(=O)N[C@@H](CC(N)=O)C(=O)N[C@@H](C(C)C)C(=O)N2 [compound 303] (H-GFCWNVCVHRNGVRVCHRRCN-OH; disulfide 3-20, 7-16 (inferred); N-terminus and C-terminus assumed) | 0.57 |
| CC(C)[C@@H]1NC(=O)CNC(=O)[C@H](CC(N)=O)NC(=O)[C@H](CCCNC(=N)N)NC(=O)[C@H](CCCCN)NC(=O)[C@H](C(C)C)NC(=O)[C@@H]2CSSC[C@H](NC(=O)[C@H](C(C)C)NC(=O)[C@H](CCCNC(=N)N)NC1=O)C(=O)N[C@@H](Cc1c[nH]cn1)C(=O)N[C@@H](CCCNC(=N)N)C(=O)N[C@@H](CCCNC(=N)N)C(=O)N[C@H](C(=O)N[C@@H](CC(N)=O)C(=O)O)CSSC[C@H](NC(=O)[C@H](Cc1ccccc1)NC(=O)CN)C(=O)N[C@@H](Cc1c[nH]c3ccccc13)C(=O)N[C@@H](CC(N)=O)C(=O)N[C@@H](C(C)C)C(=O)N2 [compound 305] (H-GFCWNVCVKRNGVRVCHRRCN-OH; disulfide 3-20, 7-16 (inferred); N-terminus and C-terminus assumed) | 0.24 |
| CC(C)[C@@H]1NC(=O)CNC(=O)[C@H](CC(N)=O)NC(=O)[C@H](CCCNC(=N)N)NC(=O)[C@H](CCCNC(=N)N)NC(=O)[C@H](C(C)C)NC(=O)[C@@H]2CSSC[C@H](NC(=O)[C@H](C(C)C)NC(=O)[C@H](CCCNC(=N)N)NC1=O)C(=O)N[C@@H](Cc1c[nH]cn1)C(=O)N[C@@H](CCCNC(=N)N)C(=O)N[C@@H](CCCNC(=N)N)C(=O)N[C@H](C(=O)N[C@@H](CC(N)=O)C(=O)O)CSSC[C@H](NC(=O)[C@H](Cc1ccccc1)NC(=O)CN)C(=O)N[C@@H](Cc1c[nH]c3ccccc13)C(=O)N[C@@H](CC(N)=O)C(=O)N[C@@H](C(C)C)C(=O)N2 [compound 308] (H-GFCWNVCVRRNGVRVCHRRCN-OH; disulfide 3-20, 7-16 (inferred); N-terminus and C-terminus assumed) | 0.06 |
| CC(C)[C@@H]1NC(=O)[C@@H]2CSSC[C@H](NC(=O)[C@H](CCCCN)NC(=O)[C@H](CCCNC(=N)N)NC(=O)[C@H](C)NC(=O)CNC(=O)[C@H](CC(N)=O)NC(=O)[C@H](CCCNC(=N)N)NC(=O)[C@H](Cc3ccc(O)cc3)NC1=O)C(=O)N[C@@H](Cc1ccc(O)cc1)C(=O)N[C@@H](CCCNC(=N)N)C(=O)N[C@@H](CCCNC(=N)N)C(=O)N[C@H](C(=O)N[C@@H](CC(N)=O)C(=O)O)CSSC[C@H](NC(=O)[C@H](Cc1ccccc1)NC(=O)CN)C(=O)N[C@@H](Cc1c[nH]c3ccccc13)C(=O)N[C@@H](CCCNC(=N)N)C(=O)N[C@@H](C(C)C)C(=O)N2 [compound 313] (H-GFCWRVCVYRNGARKCYRRCN-OH; disulfide 3-20, 7-16 (inferred); N-terminus and C-terminus assumed) | 0.02 |
| CC(C)[C@@H]1NC(=O)CNC(=O)[C@H](CC(N)=O)NC(=O)[C@H](CCCNC(=N)N)NC(=O)[C@H](Cc2ccc(O)cc2)NC(=O)[C@H](C(C)C)NC(=O)[C@@H]2CSSC[C@H](NC(=O)[C@H](CCCCN)NC(=O)[C@H](CCCNC(=N)N)NC1=O)C(=O)N[C@@H](Cc1c[nH]cn1)C(=O)N[C@@H](CCCNC(=N)N)C(=O)N[C@@H](CCCNC(=N)N)C(=O)N[C@H](C(=O)N[C@@H](CC(N)=O)C(=O)O)CSSC[C@H](NC(=O)[C@H](Cc1ccccc1)NC(=O)CN)C(=O)N[C@@H](Cc1c[nH]c3ccccc13)C(=O)N[C@@H](CCCNC(=N)N)C(=O)N[C@@H](C(C)C)C(=O)N2 [compound 315] (H-GFCWRVCVYRNGVRKCHRRCN-OH; disulfide 3-20, 7-16 (inferred); N-terminus and C-terminus assumed) | 0.07 |
| CC(C)[C@@H]1NC(=O)CNC(=O)[C@H](CC(N)=O)NC(=O)[C@H](CCCNC(=N)N)NC(=O)[C@H](Cc2ccc(O)cc2)NC(=O)[C@H](C(C)C)NC(=O)[C@@H]2CSSC[C@H](NC(=O)[C@H](CO)NC(=O)[C@H](CCCNC(=N)N)NC1=O)C(=O)N[C@@H](Cc1c[nH]cn1)C(=O)N[C@@H](CCCNC(=N)N)C(=O)N[C@@H](CCCNC(=N)N)C(=O)N[C@H](C(=O)N[C@@H](CC(N)=O)C(=O)O)CSSC[C@H](NC(=O)[C@H](Cc1ccccc1)NC(=O)CN)C(=O)N[C@@H](Cc1c[nH]c3ccccc13)C(=O)N[C@@H](CCCNC(=N)N)C(=O)N[C@@H](C(C)C)C(=O)N2 [compound 316] (H-GFCWRVCVYRNGVRSCHRRCN-OH; disulfide 3-20, 7-16 (inferred); N-terminus and C-terminus assumed) | 0.1 |
| CC(C)[C@@H]1NC(=O)CNC(=O)[C@H](CC(N)=O)NC(=O)[C@H](CCCNC(=N)N)NC(=O)[C@H](Cc2ccc(O)cc2)NC(=O)[C@H](C(C)C)NC(=O)[C@@H]2CSSC[C@H](NC(=O)[C@H](C)NC(=O)[C@H](CCCNC(=N)N)NC1=O)C(=O)N[C@@H](Cc1ccc(O)cc1)C(=O)N[C@@H](CCCNC(=N)N)C(=O)N[C@@H](CCCNC(=N)N)C(=O)N[C@H](C(=O)N[C@@H](CC(N)=O)C(=O)O)CSSC[C@H](NC(=O)[C@H](Cc1ccccc1)NC(=O)CN)C(=O)N[C@@H](Cc1c[nH]c3ccccc13)C(=O)N[C@@H](CCCNC(=N)N)C(=O)N[C@@H](C)C(=O)N2 [compound 319] (H-GFCWRACVYRNGVRACYRRCN-OH; disulfide 3-20, 7-16 (inferred); N-terminus and C-terminus assumed) | 0.6 |
| CC(C)[C@@H]1NC(=O)CNC(=O)[C@H](CC(N)=O)NC(=O)[C@H](CCCNC(=N)N)NC(=O)[C@H](Cc2ccc(O)cc2)NC(=O)[C@H](C(C)C)NC(=O)[C@@H]2CSSC[C@H](NC(=O)[C@H](CO)NC(=O)[C@H](CCCNC(=N)N)NC1=O)C(=O)N[C@@H](Cc1ccc(O)cc1)C(=O)N[C@@H](CCCNC(=N)N)C(=O)N[C@@H](CCCNC(=N)N)C(=O)N[C@H](C(=O)N[C@@H](CC(N)=O)C(=O)O)CSSC[C@H](NC(=O)[C@H](Cc1ccccc1)NC(=O)CN)C(=O)N[C@@H](Cc1c[nH]c3ccccc13)C(=O)N[C@@H](CCCNC(=N)N)C(=O)N[C@@H](C)C(=O)N2 [compound 320] (H-GFCWRACVYRNGVRSCYRRCN-OH; disulfide 3-20, 7-16) | 0.12 |
| CC(C)[C@@H]1NC(=O)[C@H](CCCNC(=N)N)NC(=O)[C@H](Cc2c[nH]c3ccccc23)NC(=O)[C@@H](NC(=O)[C@H](Cc2ccccc2)NC(=O)CN)CSSC[C@@H](C(=O)N[C@@H](CC(N)=O)C(=O)O)NC(=O)[C@H](CCCNC(=N)N)NC(=O)[C@H](CCCNC(=N)N)NC(=O)[C@H](Cc2ccc(O)cc2)NC(=O)[C@@H]2CSSC[C@H](NC1=O)C(=O)N[C@@H](Cc1c[nH]cn1)C(=O)N[C@@H](Cc1ccc(O)cc1)C(=O)N[C@@H](CCCNC(=N)N)C(=O)N[C@@H](CC(N)=O)C(=O)N[C@@H](CO)C(=O)N[C@@H](C(C)C)C(=O)N[C@@H](CCCNC(=N)N)C(=O)N[C@@H](C(C)C)C(=O)N2 [compound 327] (H-GFCWRVCHYRNSVRVCYRRCN-OH; disulfide 3-20, 7-16 (inferred); N-terminus and C-terminus assumed) | 0.02 |
